What was measured:
Experiment in all cases: Fluorescence polarization peptide interaction assay, NCoR ID2 peptide affinity, apo- or T0070907-bound wild type or mutant PPARγ LBD
Format in all cases: binding
[1] = biological target: T1, PPARγ LBD (wild type or mutant) (Homo sapiens, UniProt P37231, D503A); conditions: apo (DMSO) D475A PPARγ LBD; one site-total binding fit; read-out: NCoR ID2 peptide affinity, mean of fit (log scale) (converted)
T1 construct: made in house; host or cells: Escherichia coli BL21(DE3)
Method: (§1) Plates were incubated at 25 °C for 1 h, and fluorescence polarization was measured on a BioTek Synergy Neo multimode plate reader at […] wavelengths. Data were plotted using GraphPad Prism as fluorescence polarization signal in millipolarization units vs. protein concentration and fit to a one site—total binding equation.

[2] = biological target: T2, PPARγ LBD (wild type or mutant) (Homo sapiens, UniProt P37231, D503R); conditions: apo (DMSO) D475R PPARγ LBD; one site-total binding fit; read-out: NCoR ID2 peptide affinity, mean of fit (log scale) (converted)
T2 construct: made in house; host or cells: Escherichia coli BL21(DE3)
Method: as §1

[3] = biological target: T3, PPARγ LBD (wild type or mutant) (Homo sapiens, UniProt P37231, E499A); conditions: apo (DMSO) E471A PPARγ LBD; one site-total binding fit; read-out: NCoR ID2 peptide affinity, mean of fit (log scale) (converted)
T3 construct: made in house; host or cells: Escherichia coli BL21(DE3)
Method: as §1

[4] = biological target: T4, PPARγ LBD (wild type or mutant) (Homo sapiens, UniProt P37231, E499R); conditions: apo (DMSO) E471R PPARγ LBD; one site-total binding fit; read-out: NCoR ID2 peptide affinity, mean of fit (log scale) (converted)
T4 construct: made in house; host or cells: Escherichia coli BL21(DE3)
Method: as §1

[5] = biological target: T5, PPARγ LBD (wild type or mutant) (Homo sapiens, UniProt P37231, H351A); conditions: apo (DMSO) H323A PPARγ LBD; one site-total binding fit; read-out: NCoR ID2 peptide affinity, mean of fit (log scale) (converted)
T5 construct: made in house; host or cells: Escherichia coli BL21(DE3)
Method: as §1

[6] = biological target: T6, PPARγ LBD (wild type or mutant) (Homo sapiens, UniProt P37231, H477A); conditions: apo (DMSO) H449A PPARγ LBD; one site-total binding fit; read-out: NCoR ID2 peptide affinity, mean of fit (log scale) (converted)
T6 construct: made in house; host or cells: Escherichia coli BL21(DE3)
Method: as §1

[7] = biological target: T7, PPARγ LBD (wild type or mutant) (Homo sapiens, UniProt P37231, K329A); conditions: apo (DMSO) K301A PPARγ LBD; one site-total binding fit; read-out: NCoR ID2 peptide affinity, mean of fit (log scale) (converted)
T7 construct: made in house; host or cells: Escherichia coli BL21(DE3)
Method: as §1

[8] = biological target: T8, PPARγ LBD (wild type or mutant) (Homo sapiens, UniProt P37231, K347A); conditions: apo (DMSO) K319A PPARγ LBD; one site-total binding fit; read-out: NCoR ID2 peptide affinity, mean of fit (log scale) (converted)
T8 construct: made in house; host or cells: Escherichia coli BL21(DE3)
Method: as §1

[9] = biological target: T9, PPARγ LBD (wild type or mutant) (Homo sapiens, UniProt P37231, K395A); conditions: apo (DMSO) K367A PPARγ LBD; one site-total binding fit; read-out: NCoR ID2 peptide affinity, mean of fit (log scale) (converted)
T9 construct: made in house; host or cells: Escherichia coli BL21(DE3)
Method: as §1

[10] = biological target: T10, PPARγ LBD (wild type or mutant) (Homo sapiens, UniProt P37231, M392A); conditions: apo (DMSO) M364A PPARγ LBD; one site-total binding fit; read-out: NCoR ID2 peptide affinity, mean of fit (log scale) (converted)
T10 construct: made in house; host or cells: Escherichia coli BL21(DE3)
Method: as §1

[11] = biological target: T11, PPARγ LBD (wild type or mutant) (Homo sapiens, UniProt P37231, N340A); conditions: apo (DMSO) N312A PPARγ LBD; one site-total binding fit; read-out: NCoR ID2 peptide affinity, mean of fit (log scale) (converted)
T11 construct: made in house; host or cells: Escherichia coli BL21(DE3)
Method: as §1

[12] = biological target: T12, PPARγ LBD (wild type or mutant) (Homo sapiens, UniProt P37231, Q314A); conditions: apo (DMSO) Q286A PPARγ LBD; one site-total binding fit; read-out: NCoR ID2 peptide affinity, mean of fit (log scale) (converted)
T12 construct: made in house; host or cells: Escherichia coli BL21(DE3)
Method: as §1

[13] = biological target: T13, PPARγ LBD (wild type or mutant) (Homo sapiens, UniProt P37231, Q322A); conditions: apo (DMSO) Q294A PPARγ LBD; one site-total binding fit; read-out: NCoR ID2 peptide affinity, mean of fit (log scale) (converted)
T13 construct: made in house; host or cells: Escherichia coli BL21(DE3)
Method: as §1

[14] = biological target: T14, PPARγ LBD (wild type or mutant) (Homo sapiens, UniProt P37231, Q342A); conditions: apo (DMSO) Q314A PPARγ LBD; one site-total binding fit; read-out: NCoR ID2 peptide affinity, mean of fit (log scale) (converted)
T14 construct: made in house; host or cells: Escherichia coli BL21(DE3)
Method: as §1

[15] = biological target: T15, PPARγ LBD (wild type or mutant) (Homo sapiens, UniProt P37231, R308A); conditions: apo (DMSO) R280A PPARγ LBD; one site-total binding fit; read-out: NCoR ID2 peptide affinity, mean of fit (log scale) (converted)
T15 construct: made in house; host or cells: Escherichia coli BL21(DE3)
Method: as §1

[16] = biological target: T16, PPARγ LBD (wild type or mutant) (Homo sapiens, UniProt P37231, R316A); conditions: apo (DMSO) R288A PPARγ LBD; one site-total binding fit; read-out: NCoR ID2 peptide affinity, mean of fit (log scale) (converted)
T16 construct: made in house; host or cells: Escherichia coli BL21(DE3)
Method: as §1

[17] = biological target: T17, PPARγ LBD (wild type or mutant) (Homo sapiens, UniProt P37231, Y355A); conditions: apo (DMSO) Y327A PPARγ LBD; one site-total binding fit; read-out: NCoR ID2 peptide affinity, mean of fit (log scale) (converted)
T17 construct: made in house; host or cells: Escherichia coli BL21(DE3)
Method: as §1

[18] = biological target: T18, PPARγ LBD (wild type or mutant) (Homo sapiens, UniProt P37231, Y505A); conditions: apo (DMSO) Y477A PPARγ LBD; one site-total binding fit; read-out: NCoR ID2 peptide affinity, mean of fit (log scale) (converted)
T18 construct: made in house; host or cells: Escherichia coli BL21(DE3)
Method: as §1

T8 sequence (P37231 231-505 K347A): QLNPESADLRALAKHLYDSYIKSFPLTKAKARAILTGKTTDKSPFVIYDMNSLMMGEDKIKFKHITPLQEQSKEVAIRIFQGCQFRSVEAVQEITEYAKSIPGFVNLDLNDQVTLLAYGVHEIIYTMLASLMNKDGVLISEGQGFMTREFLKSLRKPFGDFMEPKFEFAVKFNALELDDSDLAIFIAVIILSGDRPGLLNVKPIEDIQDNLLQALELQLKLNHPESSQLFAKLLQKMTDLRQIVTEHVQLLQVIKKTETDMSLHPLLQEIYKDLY
T8 sequence (O75376 2256-2278 partner): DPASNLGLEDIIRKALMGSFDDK
T11 sequence (P37231 231-505 N340A): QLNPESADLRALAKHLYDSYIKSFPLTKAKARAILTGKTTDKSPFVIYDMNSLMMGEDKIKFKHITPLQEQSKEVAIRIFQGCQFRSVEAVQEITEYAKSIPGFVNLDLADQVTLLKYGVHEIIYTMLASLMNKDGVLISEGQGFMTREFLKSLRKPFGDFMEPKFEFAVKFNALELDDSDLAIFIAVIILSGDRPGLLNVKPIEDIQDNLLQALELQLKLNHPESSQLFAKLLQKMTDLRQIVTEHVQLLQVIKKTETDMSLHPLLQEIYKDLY
T9 sequence (P37231 231-505 K395A): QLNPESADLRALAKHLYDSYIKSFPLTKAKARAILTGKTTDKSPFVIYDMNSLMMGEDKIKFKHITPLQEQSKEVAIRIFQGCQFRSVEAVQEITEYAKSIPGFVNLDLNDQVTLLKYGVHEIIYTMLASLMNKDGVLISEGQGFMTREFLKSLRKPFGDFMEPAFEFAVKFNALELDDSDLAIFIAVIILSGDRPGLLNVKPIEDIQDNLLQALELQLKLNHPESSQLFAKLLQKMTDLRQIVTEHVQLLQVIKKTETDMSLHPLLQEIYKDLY
T6 sequence (P37231 231-505 H477A): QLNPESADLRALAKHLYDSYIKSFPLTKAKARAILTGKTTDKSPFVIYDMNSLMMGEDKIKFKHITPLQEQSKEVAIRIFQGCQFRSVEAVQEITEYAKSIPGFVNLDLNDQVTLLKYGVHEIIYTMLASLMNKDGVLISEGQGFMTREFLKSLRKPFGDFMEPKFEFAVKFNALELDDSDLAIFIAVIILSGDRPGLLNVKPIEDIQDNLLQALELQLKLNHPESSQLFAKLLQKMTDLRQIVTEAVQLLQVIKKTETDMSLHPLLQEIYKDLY
T18 sequence (P37231 231-505 Y505A): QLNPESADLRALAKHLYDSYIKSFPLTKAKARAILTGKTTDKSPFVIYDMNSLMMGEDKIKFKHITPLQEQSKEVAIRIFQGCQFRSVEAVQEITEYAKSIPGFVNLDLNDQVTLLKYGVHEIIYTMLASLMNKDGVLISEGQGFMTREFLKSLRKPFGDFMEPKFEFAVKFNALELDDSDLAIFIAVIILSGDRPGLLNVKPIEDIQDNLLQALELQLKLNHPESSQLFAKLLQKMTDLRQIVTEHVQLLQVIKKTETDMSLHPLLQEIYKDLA
T15 sequence (P37231 231-505 R308A): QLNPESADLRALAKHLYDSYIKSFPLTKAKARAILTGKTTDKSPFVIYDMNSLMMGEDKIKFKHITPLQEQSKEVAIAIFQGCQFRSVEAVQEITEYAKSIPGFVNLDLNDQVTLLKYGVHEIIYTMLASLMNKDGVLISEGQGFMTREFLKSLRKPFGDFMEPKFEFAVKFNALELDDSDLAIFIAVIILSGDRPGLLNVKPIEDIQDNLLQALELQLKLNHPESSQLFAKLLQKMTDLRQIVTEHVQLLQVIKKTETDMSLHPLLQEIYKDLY
T14 sequence (P37231 231-505 Q342A): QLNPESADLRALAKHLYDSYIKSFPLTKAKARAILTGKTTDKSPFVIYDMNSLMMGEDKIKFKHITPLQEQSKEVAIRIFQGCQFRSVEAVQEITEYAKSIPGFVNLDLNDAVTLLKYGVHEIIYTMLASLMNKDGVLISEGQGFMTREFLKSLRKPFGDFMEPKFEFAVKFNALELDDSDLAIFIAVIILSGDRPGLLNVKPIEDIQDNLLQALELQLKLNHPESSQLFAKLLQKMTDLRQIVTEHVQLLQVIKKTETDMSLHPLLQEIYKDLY
T10 sequence (P37231 231-505 M392A): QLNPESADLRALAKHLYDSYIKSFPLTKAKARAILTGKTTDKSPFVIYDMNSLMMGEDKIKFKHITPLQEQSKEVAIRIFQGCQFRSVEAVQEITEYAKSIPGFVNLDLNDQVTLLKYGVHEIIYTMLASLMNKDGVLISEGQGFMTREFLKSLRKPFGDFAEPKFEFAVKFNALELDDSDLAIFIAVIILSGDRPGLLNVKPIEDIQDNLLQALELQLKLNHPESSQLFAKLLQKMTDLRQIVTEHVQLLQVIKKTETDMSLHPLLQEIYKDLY
T2 sequence (P37231 231-505 D503R): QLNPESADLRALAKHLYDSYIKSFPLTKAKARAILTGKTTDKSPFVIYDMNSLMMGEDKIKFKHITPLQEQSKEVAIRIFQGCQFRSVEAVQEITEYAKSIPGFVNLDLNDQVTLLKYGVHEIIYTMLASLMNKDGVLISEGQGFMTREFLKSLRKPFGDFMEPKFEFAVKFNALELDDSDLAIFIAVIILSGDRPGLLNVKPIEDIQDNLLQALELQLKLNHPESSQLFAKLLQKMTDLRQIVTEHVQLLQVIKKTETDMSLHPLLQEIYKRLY
T1 sequence (P37231 231-505 D503A): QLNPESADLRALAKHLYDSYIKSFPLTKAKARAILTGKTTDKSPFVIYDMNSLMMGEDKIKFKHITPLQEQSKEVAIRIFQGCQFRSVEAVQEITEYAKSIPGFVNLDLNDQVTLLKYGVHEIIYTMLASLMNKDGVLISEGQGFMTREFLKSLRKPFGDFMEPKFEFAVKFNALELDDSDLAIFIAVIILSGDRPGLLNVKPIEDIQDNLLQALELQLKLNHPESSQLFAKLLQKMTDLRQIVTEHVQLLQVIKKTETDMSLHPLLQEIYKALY
T16 sequence (P37231 231-505 R316A): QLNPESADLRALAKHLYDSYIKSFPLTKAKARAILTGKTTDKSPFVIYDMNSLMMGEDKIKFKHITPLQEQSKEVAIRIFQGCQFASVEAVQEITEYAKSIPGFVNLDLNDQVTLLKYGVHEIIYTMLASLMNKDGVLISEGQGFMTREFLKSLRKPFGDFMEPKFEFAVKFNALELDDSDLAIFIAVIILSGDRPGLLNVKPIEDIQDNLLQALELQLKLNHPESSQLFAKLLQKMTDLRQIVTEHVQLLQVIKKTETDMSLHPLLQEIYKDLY
T5 sequence (P37231 231-505 H351A): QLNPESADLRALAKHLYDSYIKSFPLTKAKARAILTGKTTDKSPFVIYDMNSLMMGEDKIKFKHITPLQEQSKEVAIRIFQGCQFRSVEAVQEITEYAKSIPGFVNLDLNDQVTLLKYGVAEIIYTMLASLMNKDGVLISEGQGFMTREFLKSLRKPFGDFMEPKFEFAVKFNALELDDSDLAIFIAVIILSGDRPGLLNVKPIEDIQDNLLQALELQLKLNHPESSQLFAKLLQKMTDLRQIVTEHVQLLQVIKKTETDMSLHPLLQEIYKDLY
T17 sequence (P37231 231-505 Y355A): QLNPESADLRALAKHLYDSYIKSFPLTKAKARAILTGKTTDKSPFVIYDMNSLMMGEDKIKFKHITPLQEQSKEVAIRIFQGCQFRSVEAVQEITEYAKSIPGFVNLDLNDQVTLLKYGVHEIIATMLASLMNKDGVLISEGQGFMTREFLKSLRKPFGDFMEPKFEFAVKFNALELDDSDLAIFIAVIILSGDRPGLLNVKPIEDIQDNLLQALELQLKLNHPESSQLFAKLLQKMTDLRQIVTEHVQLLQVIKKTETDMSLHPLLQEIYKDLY
T13 sequence (P37231 231-505 Q322A): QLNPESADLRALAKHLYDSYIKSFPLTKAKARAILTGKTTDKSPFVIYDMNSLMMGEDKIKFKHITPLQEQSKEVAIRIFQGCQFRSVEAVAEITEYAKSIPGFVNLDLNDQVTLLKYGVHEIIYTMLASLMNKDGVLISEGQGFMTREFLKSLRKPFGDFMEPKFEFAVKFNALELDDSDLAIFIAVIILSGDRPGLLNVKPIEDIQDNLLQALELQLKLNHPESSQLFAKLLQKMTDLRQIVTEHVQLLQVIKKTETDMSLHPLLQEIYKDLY
T7 sequence (P37231 231-505 K329A): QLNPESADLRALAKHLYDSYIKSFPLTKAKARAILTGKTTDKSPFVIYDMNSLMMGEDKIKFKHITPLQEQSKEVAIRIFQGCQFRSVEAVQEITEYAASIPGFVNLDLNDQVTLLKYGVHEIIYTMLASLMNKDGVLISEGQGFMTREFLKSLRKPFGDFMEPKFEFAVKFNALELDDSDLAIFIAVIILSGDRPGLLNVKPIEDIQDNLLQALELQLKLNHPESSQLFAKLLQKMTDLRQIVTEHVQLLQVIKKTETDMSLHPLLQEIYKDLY

Kd [1]: 621 nM
Kd [2]: 522 nM
Kd [3]: 525 nM
Kd [4]: 348 nM
Kd [5]: 621 nM
Kd [6]: 1490 nM
Kd [7]: 4930 nM
Kd [8]: 2580 nM
Kd [9]: 1080 nM
Kd [10]: 38700 nM
Kd [11]: 1410 nM
Kd [12]: 807 nM
Kd [13]: 2420 nM
Kd [14]: 867 nM
Kd [15]: 766 nM
Kd [16]: 1200 nM
Kd [17]: 590 nM
Kd [18]: 822 nM
Structure (SMILES): CC[C@H](C)[C@H](NC(=O)[C@H](CC(=O)O)NC(=O)[C@H](CCC(=O)O)NC(=O)[C@H](CC(C)C)NC(=O)CNC(=O)[C@H](CC(C)C)NC(=O)[C@H](CC(N)=O)NC(=O)[C@H](CO)NC(=O)[C@H](C)NC(=O)[C@@H]1CCCN1C(=O)[C@H](CC(=O)O)NC(=O)CCCCCNC(=S)Nc1ccc2c(c1)C(=O)OC21c2ccc(O)cc2Oc2cc(O)ccc21)C(=O)N[C@H](C(=O)N[C@@H](CCCNC(=N)N)C(=O)N[C@@H](CCCCN)C(=O)N[C@@H](C)C(=O)N[C@@H](CC(C)C)C(=O)N[C@@H](CCSC)C(=O)NCC(=O)N[C@@H](CO)C(=O)N[C@@H](Cc1ccccc1)C(=O)N[C@@H](CC(=O)O)C(=O)N[C@@H](CC(=O)O)C(=O)N[C@@H](CCCCN)C(N)=O)[C@@H](C)CC [NCoR-D2]

Source: PMC7031403, “A molecular switch regulating transcriptional repression and activation of PPARγ” (Nature Communications, 2020)
